Measured values taken from PMC12263630 (Frontiers in Pharmacology, 2025).
Like-named read-outs stand apart in the source and are kept apart here.

What was measured:
[1] = system: stress-induced immobility; experiment: Forced swim test; assay type: in vivo, SD rats; settings: versus vehicle; for immobility time: 60 min prior
Description: A total of 78 male SD rats (9–10 weeks old) were procured from Hylasco Biotechnology Pvt. Ltd., Hyderabad, India and were divided into seven groups (9–12 animals per group). Animals were housed in an environmentally controlled room at 22°C ± 3°C and relative humidity of 30–70 percent. Adequate fresh air supply of 12–15 air changes/hour was maintained. The temperature was maintained at 20°C–23°C. […] The lights of the acclimatization area were switched off at 06:00 p.m. Two rats per cage were housed in sterilized suspended standard, polysulfone cages, (Size: approximately L425 x B266 x H185 mm), with stainless steel top grills having facilities for holding pelleted food and drinking water in polycarbonate bottles with stainless steel sipper tubes. During the study period animals were housed in a single room. Animals received food and water ad libitum.
The test was carried out in transparent cylindrical glass containers measuring 46 cm in height and 20 cm in diameter. The containers were filled with water (23°C–25 °C) to a depth of 30 cm. Clean drying cages, heat lamps and heat pads were used for the animals that have finished the procedure to avoid hypothermia. The test was carried out in Dark Phase. […] A red bulb of 50 W was used for observation during Swim 1 and Swim 2 procedure. Swim 1 was carried out between 18:30 to 21:30 and Swim 2 was carried out between 19:30 to 21:30.
On test day, animals were dosed intramuscularly with respective treatment 60 min prior to performing FST. […] In swim 2, the first 1-min data was excluded from analysis and the remaining 5 min data was considered.
Rats were placed in the water-filled cylinder for 6 min during Swim 2. […] A rat was judged to be immobile when it remained floating in the water without struggling and was making only those movements necessary to keep its head above water. […] Water was changed after every session to avoid any influence on the next rat. […] The rats were placed in a swim chamber and behaviors were measured for 5 min on test day. Data was presented as total immobility time (in seconds) over the 5-min trial.

[2] = target: T1, human α2C adrenergic receptor (Homo sapiens, UniProt P18825); experiment: [35S]GTPγS binding assay, α2C; assay type: biochemical; settings: for EC50 / Max activity: α2CR; for EC50: [35S]GTPγS binding; for Max activity: relative to maximal response of UK-14304
T1 sequence (P18825 1-462): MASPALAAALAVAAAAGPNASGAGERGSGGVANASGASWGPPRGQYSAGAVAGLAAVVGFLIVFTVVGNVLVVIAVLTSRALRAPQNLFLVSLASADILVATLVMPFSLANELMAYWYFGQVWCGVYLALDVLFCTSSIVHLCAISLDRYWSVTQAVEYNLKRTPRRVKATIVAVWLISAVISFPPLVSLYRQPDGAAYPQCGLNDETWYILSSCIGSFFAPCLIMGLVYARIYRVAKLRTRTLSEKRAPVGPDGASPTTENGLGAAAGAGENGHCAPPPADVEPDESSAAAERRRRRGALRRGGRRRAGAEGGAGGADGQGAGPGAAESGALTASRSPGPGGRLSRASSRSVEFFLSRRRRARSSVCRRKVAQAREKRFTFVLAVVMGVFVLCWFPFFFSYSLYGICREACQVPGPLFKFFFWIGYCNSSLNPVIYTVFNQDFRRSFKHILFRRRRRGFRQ
Description: (§1) Cells were transfected with constructs encoding either human α2A (Chem-1, rat hematopoietic cell line), or α2B or α2C (Cho-K1, Chinese hamster ovary cell line) adrenergic receptors. Each test compound was prepared in DMSO at 10 mM and diluted to indicated concentrations in the incubation buffer (20 mM HEPES, 100 mM NaCl, 10 mM MgCl2, 1 mM DTT, 1 mM EDTA, pH 7.4.
(§2) Binding data were generated as duplicates. […] Three parameter logistic equations were fitted to the data to obtain EC50 and Emax values.

[3] = target: T2, human α2B adrenergic receptor (Homo sapiens, UniProt P18089); experiment: biochemical
T2 sequence (P18089 1-450): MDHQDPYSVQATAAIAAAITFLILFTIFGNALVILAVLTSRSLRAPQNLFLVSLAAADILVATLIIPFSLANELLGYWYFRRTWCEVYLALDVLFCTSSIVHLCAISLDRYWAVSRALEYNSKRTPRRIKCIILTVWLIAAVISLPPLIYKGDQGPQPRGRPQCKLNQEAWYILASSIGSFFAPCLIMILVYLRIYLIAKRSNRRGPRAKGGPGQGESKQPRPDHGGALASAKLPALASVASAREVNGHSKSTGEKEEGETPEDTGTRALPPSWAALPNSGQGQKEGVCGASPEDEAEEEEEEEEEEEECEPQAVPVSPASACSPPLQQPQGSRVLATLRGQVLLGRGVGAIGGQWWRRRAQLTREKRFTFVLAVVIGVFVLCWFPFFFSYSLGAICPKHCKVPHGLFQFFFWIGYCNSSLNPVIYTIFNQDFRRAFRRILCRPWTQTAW
Description: as §1, §2

[4] = target: T3, human α2C adrenoceptor (Homo sapiens, UniProt P18825); experiment: β-arrestin recruitment chemiluminescent assay (PathHunter), α2C; assay type: cell-based; settings: α2CR; for Max activity: relative to UK-14304
T3 construct: expressed in transfected cells
T3 sequence (P18825 1-462): T1 sequence (P18825 1-462)
Description: (§3) PathHunter cell lines were expanded from freezer stocks according to standard procedures. Cells were seeded in a total volume of 20 μL into white walled, 384-well microplates and incubated at 37°C for the appropriate time prior to testing. Intermediate dilution of sample stocks was performed to generate 5X sample in assay buffer. […] Vehicle concentration was 1%. […] Microplates were read following signal generation with a PerkinElmer Envision™ instrument for chemiluminescent signal detection.

[5] = target: T4, human α2A adrenoceptor (Homo sapiens, UniProt P08913); experiment: β-arrestin recruitment chemiluminescent assay (PathHunter), α2A; assay type: cell-based; settings: α2AR, relative to UK-14304
T4 construct: expressed in transfected cells
T4 sequence (P08913 1-465): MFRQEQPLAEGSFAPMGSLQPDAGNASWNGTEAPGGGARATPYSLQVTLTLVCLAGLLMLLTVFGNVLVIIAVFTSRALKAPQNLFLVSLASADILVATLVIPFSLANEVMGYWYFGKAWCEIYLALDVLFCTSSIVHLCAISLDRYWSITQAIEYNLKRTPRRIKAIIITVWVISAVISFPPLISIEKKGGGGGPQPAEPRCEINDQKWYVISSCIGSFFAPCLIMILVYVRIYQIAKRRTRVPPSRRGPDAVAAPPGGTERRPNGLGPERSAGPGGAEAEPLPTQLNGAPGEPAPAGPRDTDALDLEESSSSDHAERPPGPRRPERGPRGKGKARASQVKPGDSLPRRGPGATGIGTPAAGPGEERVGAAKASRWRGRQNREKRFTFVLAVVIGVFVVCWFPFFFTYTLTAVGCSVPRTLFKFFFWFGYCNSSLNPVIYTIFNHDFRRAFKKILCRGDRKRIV
Description: as §3

[6] = system: memory consolidation; experiment: Cued fear conditioning test; settings: 10 and 20 μg/kg, 30 min before conditioning
Source text: Rats were housed 1 animal per cage in sterilized solid bottom polycarbonate cages (Dimensions 42.5 cm [L] X 26.5 cm [W] X 18.5 cm [H]) with stainless steel grill tops, facilitate for food and water bottle, and bedding of corncob husk.
Rodent fear conditioning chambers (L x W x H, rat: 26 × 30 × 33 cm, Coulbourn instruments. United States) placed in sound attenuating cabinets were used. Stainless steel grid floors (L x W, rat: 26 × 30 cm), connected to shock scramblers were used to deliver the shock. A ventilation fan provided a background noise of 60 dB. A light bulb (centered on the right wall, and 27 cm above the floor of the chamber) provided ambient illumination. Experiments were recorded using video camera, mounted on the cabinet ceiling and images were analyzed with freeze frame 3 software (V3.2.1). The fear conditioning chambers have transparent acrylic panels. All experimentations were carried out in a single fear conditioning chamber.
On day 0, animals were randomized into eight groups based on their body weight.
Session-I: On day 1 (N = 5), rats were brought to the laboratory at least 1 h prior to experimentation. […]
On day 2, rats were brought to the laboratory at least 1 h prior to experimentation. […] The freezing behavior of the animals was recorded for 6 min (starting from the time the animal placed in the fear conditioning chamber). […]

[7] = target: T5, human α2A adrenergic receptor (Homo sapiens, UniProt P08913); experiment: [35S]GTPγS binding assay, α2A; assay type: biochemical; settings: α2AR; relative to maximal response of UK-14304
T5 construct: expressed in transfected cells; host or cells: Chem-1 (rat hematopoietic cell line), membranes
T5 sequence (P08913 1-465): T4 sequence (P08913 1-465)
Description: as §1, §2

[8] = target: human α2B adrenoceptor (Homo sapiens, UniProt P18089); experiment: cell-based
Description: as §3

[9] = assumed for free plasma calculation; ref Bol et al., 1997; cited from earlier work
[10] = in vivo; settings: male, Sprague Dawley, rat
Description: Male Sprague Dawley (SD) rats, 200–250 g, purchased from Charles River Laboratories (South San Francisco, CA) were used for microdialyses studies. Upon arrival, rats were group-housed in polycarbonate cages (2-3 rats per cage) and acclimated for at least 7 days prior to commencing the studies. […] Rats were tracked via unique identifying numbers.
Ten male SD rats with a jugular vein (JV) cannula were used in this study. Rats were anesthetized using isoflurane (2%, 800 mL/min O2). Bupivacaine was used for local anesthesia and carprofen for peri-/post-operative analgesia. Animals were placed in a stereotaxic frame (Kopf instruments, United States) and MetaQuant microdialysis probes (PAN membrane, BrainLink, Netherlands) were implanted into the prefrontal cortex (PFC), 4 mm exposed surface. Coordinates for the tips of the probes for the PFC are: antero-posterior (AP) = +3.4 mm from bregma, lateral (L) = −0.8 mm from midline and ventral (V) = −5.0 mm from dura, the toothbar set at −3.3 mm. […] The microdialysis probes were connected with flexible PEEK tubing to a microperfusion pump (Harvard PHD 2000 Syringe pump, Holliston, MA). […] Microdialysis samples were collected for 30 min periods by an automated fraction collector (820 Microsampler, Univentor, Malta) into 300 µL polypropylene mini-vials. […]

[11] = system: stress-induced immobility after repeated stress; experiment: Open space swim test; settings: for time spent in the periphery, change vs vehicle controls / mean duration of immobility, change vs vehicle controls / mean distance travelled, change vs vehicle controls: Day 8, 40 μg/kg i.p. acute; for time spent in the periphery, change vs vehicle controls: p < 0.001
[12] = system: sleep onset latency
Source text: Chow and water were provided ad libitum for the duration of the study.

[13] = system: motor coordination; experiment: Rotarod test; settings: 4 mg/kg i.p., 30 min before test; p < 0.01
Description: 75 male Swiss mice (6 weeks old, 29–41 g body weight range at the beginning of the experiment) were supplied by Janvier Labs (Le Genest St Isle, France). […] Environmental enrichment such as gnawing and nesting material was provided.
On Day 0, mice were submitted to two training trials separated by a 5-min interval. For each trial, mice were placed on a rod (diameter: 7 cm) rotating at a speed of 18 revolutions per minute for a 3-min period. On Day 1, a final training was performed in the morning (at least 2 h before the drug testing). On Day 1, the test session was performed at least 2 h after the habituation period (in the afternoon) and mice were placed on the rod for a maximum period of 3 min. The latency to fall off the rod was recorded. Data was analyzed by using one-way ANOVA followed by Dunnett’s comparisons test.75 male Swiss mice (6 weeks old, 29–41 g) were allocated into five groups (10–15 animals per group).

[14] = system: CCK-4 induced anxiety; experiment: CCK-4 elevated plus maze test
Source text: 48 male Wistar rats were supplied by Janvier (Le Genest St Isle, France) for this study. They were purchased at a body weight of 150 g and reached a body weight of about 270 g at the time of use.
In the present study, 12 animals per group were used. The apparatus is a PVC maze covered with Plexiglas and subdivided into four equal exploratory arms (40 × 10 cm), which are all interconnected by a small platform (10 × 10 cm). The apparatus is placed 65 cm above the floor. Two arms are open, and two others are closed with transparent wall (high: 10 cm).
After compound administration, a rat is placed on the platform opposite a closed arm. The number of entries and the time spent on each arm are recorded during a 5 min period. The animal is considered as entered in an arm when it places its four paws in the arm. The apparatus was cleaned between each animal using alcohol (70%). Urine and feces were removed from the maze. Data were analyzed by One way ANOVA followed by Dunnett’s comparisons test. CCK-4 (0.2 mg/kg) was administered intraperitoneally in the Wistar rats 30 min prior to the test. […] 60 min prior to the study (30 min prior to CCK-4 administration). Diazepam (1 mg/kg) was administered 30 min prior to study (at the time of CCK-4 administration). After the administration of compounds, rats were placed on the platform opposite a closed arm in the elevated plus maze. The number of entries and the time spent in each arm were recorded during a 5 min period. The animal was considered as entered in an arm when it placed its four paws in the arm.

[15] = daily i.p. Day 8 to Day 32, 40 μg/kg, p < 0.0001

Q: Which results are given for `Cc1cccc([C@H](C)c2cnc[nH]2)c1C` [Dexmedetomidine]?
A: immobility time ([1]; 1 μg/kg intramuscular, p = 0.0238): significantly decreased; immobility time ([1]; 5 μg/kg intramuscular, p < 0.0001): significantly decreased; EC50 [2]: 14 nM; Max activity [2]: 110%; EC50 [3]: 2.8 nM; Max activity [3]: 147%; EC50 [4]: 24 nM; Max activity [4]: 95%; Max activity [5]: 101%; memory formation (duration of freezing) [6]: did not impair memory formation; Max activity [7]: 89%; EC50 [8]: 0.6 nM; Max activity [8]: 106%; bound to plasma proteins [9]: 84%; Tmax [10]: 30 to 60 min; time spent in the periphery, change vs vehicle controls ([11]; first treated group): +159%; mean duration of immobility, change vs vehicle controls ([11]; first treated group, p < 0.01): −43%; mean distance travelled, change vs vehicle controls ([11]; first treated group, p < 0.05): +31%; time spent in the periphery, change vs vehicle controls ([11]; second treated group): +138%; mean distance travelled, change vs vehicle controls ([11]; second treated group, p < 0.01): +36%; mean duration of immobility, change vs vehicle controls ([11]; second treated group, p < 0.01): −36%; mean distance travelled over the testing period [11, 15]: increased; mean duration of immobility over the testing period [11, 15]: decreased; time spent in the periphery over the testing period [11, 15]: increased; onset of SWS ([12]; 5 μg/kg intramuscular): significantly reduced; onset of SWS ([12]; 20 μg/kg intramuscular): significantly reduced

Q: Which results are given for `N=C(N)NC(=O)Cc1c(Cl)cccc1Cl` [Guanfacine]?
A: Max activity [2]: 72%; Max activity [4]: 68%; Max activity [5]: 100%; Max activity [7]: 78%

Q: With `CN1C(=O)CN=C(c2ccccc2)c2cc(Cl)ccc21` [Diazepam] as the compound, how does the “latency to fall-off, change vs vehicle controls” value [13] read?
A: Its value is −60%.

Q: What about the “effects in elevated plus maze, positive control” value ([14]; 1 mg/kg, 30 min prior, with CCK-4) of the same compound?
A: The value was “exceeded those measured in vehicle animals”.

Q: With `CN(C)CCCN1c2ccccc2CCc2ccccc21` [imipramine] as the compound, how does the “immobility time, positive control” value ([1]; 30 mg/kg) read?
A: The value was “p = 0.0002 versus vehicle”.

Q: Which results are given for Cholecystokinin tetrapeptide [CCK-4]?
A: number of entries in the open arms ([14]; CCK-4 0.2 mg/kg i.p. alone, vehicle 4.3): 1.3; time spent in the open arms ([14]; CCK-4 0.2 mg/kg i.p. alone, vehicle 45 s): 6 s

Q: For `CC(Oc1c(Cl)cccc1Cl)C1=NCCN1` (centres unmarked) [Lofexidine], which EC50 [2] is on record?
A: Its EC50 is 23 nM.

Q: What about the Max activity [2] of the same compound?
A: Its Max activity is 50%.

Q: What about the EC50 [3] of the same compound?
A: The EC50 was 43 nM.

Q: What about the Max activity ([3]; α2BR, relative to maximal response of UK-14304) of the same compound?
A: The Max activity was 97%.

Q: Which results are given for `Clc1cccc(Cl)c1N=C1NCCN1` [Clonidine]?
A: intrinsic activity at the α2C-AR ([2]; in words, repeated in two assay systems): very low intrinsic activity; Max activity [2]: 32%; Max activity [4]: 8%; Max activity [5]: 93%; Max activity [7]: 76%
